Columns and labels:
[1] = compared with administration of equivalent oral dosages; cited from earlier work
[2] = test system: bladder tissue; conditions: rabbits; intravesical instillation of crushed tablets; cited from earlier work
[3] = oral and rectal administration forms; cited from earlier work
[4] = stability of the aqueous solution during storage and transportation; format: physicochemical
Description: Accordingly, the invention provides for an aqueous trospium chloride solution prepared from two components, as described above. For the aqueous solution to remain stable for a long time during storage and transportation, the pH-value should be lower than 4.5. However, such a solution has never been considered suitable for administration to the bladder and is also unacceptable for physiological reasons. Therefore the invention assumes that the aqueous solution is prepared prior to administration with a pH-value equal to or greater than 4.5, in order to exclude from the outset ageing, storage and transportation problems.

[5] = test system: smooth muscle cells of the detrusor; assay: internal investigations: direct (musculotropic) action on smooth muscle cells of the detrusor; format: cell-based
Excerpt: It will be appreciated that the active agent trospium chloride acts as an anticholinergic, i.e. it occupies receptors of the parasympathetic nervous system, without causing the effects induced by the natural neurotransmitter acetyl choline (neurotropic action). The anticholinergic power of trospium chloride in vitro is 20 times greater than that of oxybutynin (Eckert R. E., Wilhelm A., Schwantes U., Utz J. Alloussi S., Trautwein W. & Ziegler M., Modulation of the cytoplasmic Ca^2+ concentration of isolated myocytes of the detrusor vesicae by anticholinergics, Akt. Urol. 26, 46, 1995). […] These musculotropic characteristics are particularly important in the case of direct administration to the bladder.

[6] = plasma concentrations of trospium chloride after intravesicular instillation; format: in vivo; conditions: intravesicular instillation of 7.5 mg trospium chloride/20 ml; period of 12 hours; sensitive, validated measuring method
Description: It is particularly advantageous to prepare said aqueous solution with a pH-value≥4.5 immediately prior to administration, in order to prevent any decomposition of the active agent trospium chloride. In particular, the pH-value of the inventive formulation is 5.0 to 7.5, so that it falls entirely within the pH-value range of the normal urine of healthy humans. […] This was confirmed by measuring plasma concentrations of trospium chloride after intravesicular instillation of 7.5 mg trospium chloride/20 ml for a period of 12 hours.

[7] = test system: isolated myocytes of the detrusor vesicae; conditions: greater than that of oxybutynin; cited from earlier work
[8] = test system: bladder tissue; assay: study on beagles concerning local compatibility following once daily intravesical instillation over 4 weeks; format: in vivo; conditions: selected formulation

Question: What does the source list for `CCN(CC)CC#CCOC(=O)C(O)(c1ccccc1)C1CCCCC1` (centres unmarked) [oxybutynin]?
Answer: absorption following intravesicular instillation [1]: absorbed to a greater extent; inflammatory processes in the region of the bladder tissue (histological evaluation) [2]: Inflammatory processes were detected

Question: Which results are given for `O=C(O[C@H]1C[C@H]2CC[C@@H](C1)[N+]21CCCC1)C(O)(c1ccccc1)c1ccccc1` [trospium chloride]?
Answer: absorption from the intestinal lumen into the system [3]: poor absorption; pH-value for the aqueous solution to remain stable for a long time [4]: lower than 4.5; direct action on smooth muscle cells of the detrusor (basal Ca^2+ flow) [5]: inhibition of the basal Ca^2+ flow; plasma concentrations [6]: At no time plasma concentrations were detected that were above the detection limit; anticholinergic power in vitro, relative to oxybutynin [7]: 20 times; local compatibility (local adverse effects to the bladder tissue) [8]: did not lead to local adverse effects to the bladder tissue
